Patent publication US20230226047A1, “COMBINATION THERAPY FOR TREATMENT OF CANCERS” (Health Research, Inc., priority 2019, published 2023)
Entries after “also recorded” stand apart in the source; their conditions may differ.

Experiments:
C42 cells = experiment: Flow cytometry of MHC expression after MCTP-39 and IFNg treatment, human C42 cells; type: cell-based; conditions: combined treatment with MCTP-39 and IFNg, FIG. 7A
Experimental: (§1) Cell proliferation: Knock down of WHSC1 in C4-2 and TRAMP C-2 cells is discussed in previous sections. Cells were counted at 48, 96 and 144 hours. For pharmacological inhibition, cells either C4-2 or TRAMP C2 were seeded overnight at 4×10^3 cells per 100 μl media in a 96 well plate, the following day cells were treated with vehicle control or different concentrations of MCTP-39 (0-10 μM) for 48 hours. After 48 hours, C4-2 or TRAMP C-2 cells were either counted or used for staining with MHCI/II antibodies. Briefly cells were detached using trypsin and washed with FACS buffer for 5 minutes at 300 g. The pellet was resuspended in FACS buffer and stained with MHC-I/II antibodies for 20 minutes at 4 C. After incubation, cells were washed with FACS buffer 2× and resuspended in 200 μl of FACS buffer before acquiring the data on a flow cytometer.

[1] = system: OVA-overexpressing TRAMP C2 cells; experiment: Flow cytometry of antigen-bound MHC (OVA-bound H2Kb); type: cell-based, murine; conditions: 48 hours, FIG. 7C-D
Source text: OVA overexpression: Soluble ovalbumin (OVA) gene, which was amplified from pCI-neo-sOVA (Addgene plasmid 25098), and monomeric enhanced green fluorescent protein (mEGFP) gene, which was amplified from mEGFP-N1 (Addgene plasmid 54767), were genetically fused via P2A translational skipping sequence and cloned in the Sleeping Beauty transposon plasmid with the human elongation factor 1α promoter. This plasmid, pT2-EF-OVA-mEGFP, was electroporated together with the Sleeping Beauty Transposase plasmid, pCMV(CAT)T7-SB100 (a gift from Zsuzsanna Izsvak; Addgene plasmid #34879), into TRAMP-C2 by Nucleofector 4D instrument. The electroporated cells were kept in maintenance medium (DMEM supplemented with 10% FBS, 0.005 mg/ml bovine insulin, 1 nM DHT and cell sorted based on mGFP expression using FACS Aria I cell sorter. The expression of OVA on sorted cells were confirmed by western blotting using rabbit polyclonal OVA antibody (ab186717) at 1:4000 dilution and flow cytometry using PE anti-mouse H-2K^b bound to SIINFEKL (BioLegend) before incubating with or without MCTP-39 for 48 hours. The expression of OVA was analyzed after 48 hours by flow cytometry using BDLSRIIA cytometer and data was analyzed by FCS express 7 Research Edition.

[2] = system: TRAMP C2 cells grafted in C57B/6 mice; experiment: TRAMP C2 subcutaneous graft in immunocompetent C57B/6 mice; type: in vivo, mouse
Experimental: (§2) Immunotherapy in prostate cancer (PCa) lags behind the progresses obtained in other cancer types partially because of its limited immune infiltration. While a few studies reported increased homing of immune cells in response to androgen deprivation therapy (ADT), the mechanism by which this occurs is still poorly understood. Using TCGA PCa RNASeq data patients were divided into top/bottom 30% based on the expression of WHSC1 and DFS was calculated for both groups. Publicly available ChIPSeq data were obtained from Cistrome and integrated with the available RNASeq data. RNASeq, ATACSeq and EPIC Infinium MethylArrays were analyzed using R Bioconductor packages comparing C42 cells with or without stable knockdown on WHSC1. Flow cytometry was used to measure MHC levels, MHC-bound OVA and tumor infiltration. C57B6 and NSG mice were subcutaneously grafted with TRAMP C2 cells and treated with MCTP39 (10 mg/kg); tumor size was monitored over time and curves compared using permutation analyses. All analyses use a significance threshold of 0.05.
Mice and in vivo experiments: Male C57B/6J mice (6-8 weeks of age) and NSG mice (10-12 weeks of age) were obtained from the Roswell Park's Center For Immunotherapy breeding colonies. All in vivo experiments were made following institutional and IACUC regulations. In vivo experiments were not blinded. C2 cells (1×10^6 cells/100 μl) were injected subcutaneously into the right flank of male C57BL/6J mice (n=6/group) or NSG mice (n=5/group) using a 27 G needle. Sample size was chosen based on pilot studies and chosen to include the potential loss of mice prior treatment. Tumor volume was monitored weekly with an electronic caliper and calculated as V=(W^2×L)/2, where Vis tumor volume, W is tumor width and L is tumor length. When tumors reached 100 mm^3, mice were randomized prior treatment with either MCTP-39 (10 mg/kg 5×/week/4 weeks) or vehicle control. Mice were euthanized either when tumors reached […] in any dimension, as per Institutional IACUC regulations, when mice show signs of advanced disease or after 4 weeks of treatment. Tumors were harvested and weighted, single cells suspension was prepared using the Tumor dissociation kit (Miltenyi Biotech) as per manufacturing instructions prior flow cytometry analysis.
Flow cytometry and antibodies: Single cell suspension from tumors was stained the antibodies listed in Table S3 (FIG. 14) for 20 min at 4° C. After staining, cells were washed and fixed with fixation buffer for 15 min at 4° C. followed by washing 2× with FACS buffer. Cells were resuspended in 200 μl of FACS buffer before acquiring data on BDLSR IIA flow cytometer. Data were analyzed using FCS express 7 Research Edition.
Statistical methods: Survival analysis was performed dividing patients based on the upper/lower 25% of the expression levels of WHSC1, significance, HR and confidence intervals were calculated using cox proportional hazard model available in the R package survival. […] Significance for the AUC analysis was calculated by simulating 10,000 AUCs using randomly selected genes in the RNASeq dataset. The empirical p value was calculated by dividing the number of expected/simulated AUCs higher than our observed value by 10,000 (number of simulations). Significance when comparing two groups was calculated via two-tailed Student's t.test at a significance threshold of 0.05. […]

[3] = system: TRAMP C2 cells grafted in NSG mice; experiment: TRAMP C2 subcutaneous graft in immunocompromised NSG mice; type: in vivo, mouse; conditions: 10 mg/kg, four weeks, p=0.1461, permutation test, FIG. 8B
Experimental: as §2
Mice and in vivo experiments: Male C57B/6J mice (6-8 weeks of age) and NSG mice (10-12 weeks of age) were obtained from the Roswell Park's Center For Immunotherapy breeding colonies. […] Tumor volume was monitored weekly with an electronic caliper and calculated as V=(W^2×L)/2, where Vis tumor volume, W is tumor width and L is tumor length. […]

TRAMP C2 cells = experiment: Flow cytometry of MHC expression after MCTP-39 and IFNg treatment, murine TRAMP C2 cells; type: cell-based; conditions: combined treatment with MCTP-39 and IFNg, FIG. 7B
Experimental: as §1

[4] = C57B/6 mice, tumors at endpoint, flow cytometry, FIG. 8C

## NNc1nc2ccccc2[nH]c1=S [MCTP39]
C42 cells
  upregulating HLA-B7, HLA-F, HLA-E, HLA-DQ, HLA-DM: additive effect
[1]
  OVA-bound H2Kb fraction: increased
[2]; C57B/6 mice, 10 mg/kg IP for four weeks, p=0.0023, permutation test, FIG. 8A, 10 mg/kg
  Tumor growth: significantly reduced
[2]; C57B/6 mice, at endpoint, FIG. 8C
  Tumor weight: reduced
[2]; [4]
  CD8+ T cells infiltration: increased
  H2Kb (MHC) expression on the tumor: increased
[2]; preliminary in vivo data
  intratumoral CD8+PD1+ T cells: may increase
[3]
  Tumor growth: limited and non-significant effect; also recorded: Not Significant; also recorded: not observed
TRAMP C2 cells
  upregulating murine H2Kb I-A/I-E: additive effect
